Measurements as given in the OligoGym collection.
Oligonucleotides are written 5' to 3', each unit as a sugar letter and its base; * is a phosphorothioate linkage, no mark a phosphodiester; rarer units and linkages stand in square brackets, end groups in braces. Plain capitals give the bases only. Oligonucleotides are given in HELM: sugar(base)linkage, 5' to 3'; d 2'-deoxyribose, r ribose, m 2'-O-methylribose, p phosphate. ss, as = sense and antisense strand; d = 2'-deoxy (DNA); r = 2'-OH (RNA)
Note: test concentration or dose not given here.

Each substance was assayed against UBE2D3 (assay: reporter assay of Huesken 2005). Details: siRNA.
Work on “RNA1{r(A)p.r(C)p.r(G)p.r(G)p.r(A)p.r(U)p.r(C)p.r(U)p.r(A)p.r(U)p.r(A)p.r(A)p.r(A)p.r(A)p.r(C)p.r(A)p.r(G)p.r(A)p.r(C)p.d(T)p.d(T)}|RNA2{r(G)p.r(U)p.r(C)p.r(U)p.r(G)p.r(U)p.r(U)p.r(U)p.r(U)p.r(A)p.r(U)p.r(A)p.r(G)p.r(A)p.r(U)p.r(C)p.r(C)p.r(G)p.r(U)p.d(G)p.d(C)}$$$RNA1{StrandType:ss}|RNA2{StrandType:as}$” yielded a normalised inhibition (eCFP-eYFP dual reporter) of 68.3%.
For “RNA1{r(A)p.r(U)p.r(U)p.r(U)p.r(A)p.r(U)p.r(C)p.r(A)p.r(U)p.r(C)p.r(C)p.r(A)p.r(A)p.r(A)p.r(U)p.r(A)p.r(U)p.r(U)p.r(A)p.d(T)p.d(T)}|RNA2{r(U)p.r(A)p.r(A)p.r(U)p.r(A)p.r(U)p.r(U)p.r(U)p.r(G)p.r(G)p.r(A)p.r(U)p.r(G)p.r(A)p.r(U)p.r(A)p.r(A)p.r(A)p.r(U)p.d(T)p.d(C)}$$$RNA1{StrandType:ss}|RNA2{StrandType:as}$”, the normalised inhibition (eCFP-eYFP dual reporter) was 76.2%.
For “RNA1{r(U)p.r(C)p.r(U)p.r(A)p.r(A)p.r(G)p.r(A)p.r(U)p.r(C)p.r(A)p.r(C)p.r(A)p.r(G)p.r(U)p.r(G)p.r(G)p.r(U)p.r(C)p.r(G)p.d(T)p.d(T)}|RNA2{r(C)p.r(G)p.r(A)p.r(C)p.r(C)p.r(A)p.r(C)p.r(U)p.r(G)p.r(U)p.r(G)p.r(A)p.r(U)p.r(C)p.r(U)p.r(U)p.r(A)p.r(G)p.r(A)p.d(A)p.d(T)}$$$RNA1{StrandType:ss}|RNA2{StrandType:as}$”, the normalised inhibition (eCFP-eYFP dual reporter) was 43.3%.
In the case of “RNA1{r(C)p.r(U)p.r(G)p.r(C)p.r(U)p.r(U)p.r(U)p.r(A)p.r(A)p.r(C)p.r(A)p.r(A)p.r(U)p.r(U)p.r(U)p.r(C)p.r(U)p.r(A)p.r(A)p.d(T)p.d(T)}|RNA2{r(U)p.r(U)p.r(A)p.r(G)p.r(A)p.r(A)p.r(A)p.r(U)p.r(U)p.r(G)p.r(U)p.r(U)p.r(A)p.r(A)p.r(A)p.r(G)p.r(C)p.r(A)p.r(G)p.d(G)p.d(C)}$$$RNA1{StrandType:ss}|RNA2{StrandType:as}$”, the normalised inhibition (eCFP-eYFP dual reporter) is reported as 89.7%.
In the case of “RNA1{r(U)p.r(G)p.r(G)p.r(C)p.r(A)p.r(G)p.r(C)p.r(A)p.r(U)p.r(U)p.r(U)p.r(G)p.r(U)p.r(C)p.r(U)p.r(C)p.r(G)p.r(A)p.r(U)p.d(T)p.d(T)}|RNA2{r(A)p.r(U)p.r(C)p.r(G)p.r(A)p.r(G)p.r(A)p.r(C)p.r(A)p.r(A)p.r(A)p.r(U)p.r(G)p.r(C)p.r(U)p.r(G)p.r(C)p.r(C)p.r(A)p.d(T)p.d(T)}$$$RNA1{StrandType:ss}|RNA2{StrandType:as}$”, the normalised inhibition (eCFP-eYFP dual reporter) is reported as 99.6%.
Substance “RNA1{r(A)p.r(A)p.r(G)p.r(G)p.r(U)p.r(U)p.r(G)p.r(C)p.r(A)p.r(U)p.r(U)p.r(U)p.r(A)p.r(C)p.r(A)p.r(A)p.r(C)p.r(A)p.r(A)p.d(T)p.d(T)}|RNA2{r(U)p.r(U)p.r(G)p.r(U)p.r(U)p.r(G)p.r(U)p.r(A)p.r(A)p.r(A)p.r(U)p.r(G)p.r(C)p.r(A)p.r(A)p.r(C)p.r(C)p.r(U)p.r(U)p.d(A)p.d(G)}$$$RNA1{StrandType:ss}|RNA2{StrandType:as}$” has a normalised inhibition (eCFP-eYFP dual reporter) of 83%.
“RNA1{r(C)p.r(A)p.r(U)p.r(U)p.r(U)p.r(A)p.r(C)p.r(A)p.r(A)p.r(C)p.r(A)p.r(A)p.r(G)p.r(A)p.r(A)p.r(U)p.r(U)p.r(U)p.r(A)p.d(T)p.d(T)}|RNA2{r(U)p.r(A)p.r(A)p.r(A)p.r(U)p.r(U)p.r(C)p.r(U)p.r(U)p.r(G)p.r(U)p.r(U)p.r(G)p.r(U)p.r(A)p.r(A)p.r(A)p.r(U)p.r(G)p.d(C)p.d(A)}$$$RNA1{StrandType:ss}|RNA2{StrandType:as}$” was tested, and the normalised inhibition (eCFP-eYFP dual reporter) was 70%.
“RNA1{r(G)p.r(C)p.r(A)p.r(A)p.r(G)p.r(C)p.r(C)p.r(A)p.r(C)p.r(A)p.r(A)p.r(U)p.r(U)p.r(A)p.r(U)p.r(G)p.r(G)p.r(G)p.r(A)p.d(T)p.d(T)}|RNA2{r(U)p.r(C)p.r(C)p.r(C)p.r(A)p.r(U)p.r(A)p.r(A)p.r(U)p.r(U)p.r(G)p.r(U)p.r(G)p.r(G)p.r(C)p.r(U)p.r(U)p.r(G)p.r(C)p.d(C)p.d(A)}$$$RNA1{StrandType:ss}|RNA2{StrandType:as}$” gave a normalised inhibition (eCFP-eYFP dual reporter) of 75.8%.
Substance “RNA1{r(A)p.r(G)p.r(G)p.r(U)p.r(U)p.r(G)p.r(C)p.r(A)p.r(U)p.r(U)p.r(U)p.r(A)p.r(C)p.r(A)p.r(A)p.r(C)p.r(A)p.r(A)p.r(G)p.d(T)p.d(T)}|RNA2{r(C)p.r(U)p.r(U)p.r(G)p.r(U)p.r(U)p.r(G)p.r(U)p.r(A)p.r(A)p.r(A)p.r(U)p.r(G)p.r(C)p.r(A)p.r(A)p.r(C)p.r(C)p.r(U)p.d(T)p.d(A)}$$$RNA1{StrandType:ss}|RNA2{StrandType:as}$” has a normalised inhibition (eCFP-eYFP dual reporter) of 86.6%.
“RNA1{r(U)p.r(U)p.r(U)p.r(C)p.r(A)p.r(U)p.r(U)p.r(G)p.r(G)p.r(C)p.r(A)p.r(A)p.r(G)p.r(C)p.r(C)p.r(A)p.r(C)p.r(A)p.r(A)p.d(T)p.d(T)}|RNA2{r(U)p.r(U)p.r(G)p.r(U)p.r(G)p.r(G)p.r(C)p.r(U)p.r(U)p.r(G)p.r(C)p.r(C)p.r(A)p.r(A)p.r(U)p.r(G)p.r(A)p.r(A)p.r(A)p.d(C)p.d(A)}$$$RNA1{StrandType:ss}|RNA2{StrandType:as}$” gave a normalised inhibition (eCFP-eYFP dual reporter) of 85.3%.
For “RNA1{r(U)p.r(C)p.r(U)p.r(A)p.r(A)p.r(A)p.r(G)p.r(U)p.r(U)p.r(C)p.r(U)p.r(U)p.r(U)p.r(U)p.r(A)p.r(U)p.r(C)p.r(C)p.r(A)p.d(T)p.d(T)}|RNA2{r(U)p.r(G)p.r(G)p.r(A)p.r(U)p.r(A)p.r(A)p.r(A)p.r(A)p.r(G)p.r(A)p.r(A)p.r(C)p.r(U)p.r(U)p.r(U)p.r(A)p.r(G)p.r(A)p.d(A)p.d(A)}$$$RNA1{StrandType:ss}|RNA2{StrandType:as}$”, the normalised inhibition (eCFP-eYFP dual reporter) was 64.2%.
Work on “RNA1{r(U)p.r(U)p.r(G)p.r(C)p.r(A)p.r(U)p.r(U)p.r(U)p.r(A)p.r(C)p.r(A)p.r(A)p.r(C)p.r(A)p.r(A)p.r(G)p.r(A)p.r(A)p.r(U)p.d(T)p.d(T)}|RNA2{r(A)p.r(U)p.r(U)p.r(C)p.r(U)p.r(U)p.r(G)p.r(U)p.r(U)p.r(G)p.r(U)p.r(A)p.r(A)p.r(A)p.r(U)p.r(G)p.r(C)p.r(A)p.r(A)p.d(C)p.d(C)}$$$RNA1{StrandType:ss}|RNA2{StrandType:as}$” yielded a normalised inhibition (eCFP-eYFP dual reporter) of 68.4%.
For “RNA1{r(U)p.r(C)p.r(U)p.r(C)p.r(G)p.r(A)p.r(U)p.r(A)p.r(U)p.r(U)p.r(C)p.r(U)p.r(A)p.r(A)p.r(G)p.r(A)p.r(U)p.r(C)p.r(A)p.d(T)p.d(T)}|RNA2{r(U)p.r(G)p.r(A)p.r(U)p.r(C)p.r(U)p.r(U)p.r(A)p.r(G)p.r(A)p.r(A)p.r(U)p.r(A)p.r(U)p.r(C)p.r(G)p.r(A)p.r(G)p.r(A)p.d(C)p.d(A)}$$$RNA1{StrandType:ss}|RNA2{StrandType:as}$”, the normalised inhibition (eCFP-eYFP dual reporter) was 98.1%.

Each substance was assayed against UBE2T (assay: reporter assay of Huesken 2005). Details: siRNA.
Work on “sense rGrCrUrGrArUrGrArGrGrArArGrArGrArUrGrCdTdT / antisense rGrCrArUrCrUrCrUrUrCrCrUrCrArUrCrArGrCdCdT” yielded a normalised inhibition (eCFP-eYFP dual reporter) of 73.8%.
“sense rGrCrUrCrArArArUrArUrUrArGrGrUrGrGrArGdTdT / antisense rCrUrCrCrArCrCrUrArArUrArUrUrUrGrArGrCdTdC” gave a normalised inhibition (eCFP-eYFP dual reporter) of 87.1%.
“sense rArArUrGrCrCrArGrArCrArGrUrGrGrArCrArGdTdT / antisense rCrUrGrUrCrCrArCrUrGrUrCrUrGrGrCrArUrUdCdT” was tested, and the normalised inhibition (eCFP-eYFP dual reporter) was 77.5%.
In the case of “sense rArArCrCrCrArArCrCrCrUrGrArUrGrArCrCrCdTdT / antisense rGrGrGrUrCrArUrCrArGrGrGrUrUrGrGrGrUrUdCdT”, the normalised inhibition (eCFP-eYFP dual reporter) is reported as 52.7%.
With “sense rCrCrArArArArGrGrUrGrCrUrUrGrGrArGrArCdTdT / antisense rGrUrCrUrCrCrArArGrCrArCrCrUrUrUrUrGrGdTdG” the normalised inhibition (eCFP-eYFP dual reporter) was 84.9%.
With “sense rGrCrArArCrUrGrUrGrUrUrGrArCrCrUrCrUrAdTdT / antisense rUrArGrArGrGrUrCrArArCrArCrArGrUrUrGrCdGdA” the normalised inhibition (eCFP-eYFP dual reporter) was 114%.
For “sense rGrCrUrArGrUrArGrGrCrArUrArGrArArArArGdTdT / antisense rCrUrUrUrUrCrUrArUrGrCrCrUrArCrUrArGrCdTdG”, the normalised inhibition (eCFP-eYFP dual reporter) was 106%.
“sense rArArGrGrUrGrCrUrUrGrGrArGrArCrCrArUrCdTdT / antisense rGrArUrGrGrUrCrUrCrCrArArGrCrArCrCrUrUdTdT” showed a normalised inhibition (eCFP-eYFP dual reporter) of 60.5%.
In the case of “sense rUrGrGrArUrGrUrUrCrUrCrArArArUrUrGrCrCdTdT / antisense rGrGrCrArArUrUrUrGrArGrArArCrArUrCrCrAdGdA”, the normalised inhibition (eCFP-eYFP dual reporter) is reported as 71.9%.
Work on “sense rArCrCrUrCrCrUrCrArGrArUrCrCrGrArUrUrUdTdT / antisense rArArArUrCrGrGrArUrCrUrGrArGrGrArGrGrUdTdC” yielded a normalised inhibition (eCFP-eYFP dual reporter) of 100%.
Work on “sense rCrCrUrGrArUrGrArCrCrCrGrCrUrCrArUrGrGdTdT / antisense rCrCrArUrGrArGrCrGrGrGrUrCrArUrCrArGrGdGdT” yielded a normalised inhibition (eCFP-eYFP dual reporter) of 83.5%.
With “sense rGrGrUrGrCrUrUrGrGrArGrArCrCrArUrCrCrCdTdT / antisense rGrGrGrArUrGrGrUrCrUrCrCrArArGrCrArCrCdTdT” the normalised inhibition (eCFP-eYFP dual reporter) was 80.4%.
Work on “sense rCrGrArGrCrUrCrArArArUrArUrUrArGrGrUrGdTdT / antisense rCrArCrCrUrArArUrArUrUrUrGrArGrCrUrCrGdCdA” yielded a normalised inhibition (eCFP-eYFP dual reporter) of 90%.
Substance “sense rGrArUrGrArGrGrArArGrArGrArUrGrCrUrUrGdTdT / antisense rCrArArGrCrArUrCrUrCrUrUrCrCrUrCrArUrCdAdG” has a normalised inhibition (eCFP-eYFP dual reporter) of 95.1%.
Work on “sense rCrUrCrCrArArUrUrUrArUrCrArUrCrCrArArAdTdT / antisense rUrUrUrGrGrArUrGrArUrArArArUrUrGrGrArGdTdG” yielded a normalised inhibition (eCFP-eYFP dual reporter) of 107%.
“sense rUrCrUrGrGrArUrGrUrUrCrUrCrArArArUrUrGdTdT / antisense rCrArArUrUrUrGrArGrArArCrArUrCrCrArGrAdCdA” showed a normalised inhibition (eCFP-eYFP dual reporter) of 80.8%.
Substance “sense rUrGrArGrArGrGrUrArCrCrCrArUrUrUrGrArAdTdT / antisense rUrUrCrArArArUrGrGrGrUrArCrCrUrCrUrCrAdGdG” has a normalised inhibition (eCFP-eYFP dual reporter) of 87.4%.
For “sense rUrGrGrUrGrArCrUrCrCrArGrArGrUrArCrArCdTdT / antisense rGrUrGrUrArCrUrCrUrGrGrArGrUrCrArCrCrAdGdC”, the normalised inhibition (eCFP-eYFP dual reporter) was 80.3%.
Substance “sense rArGrGrUrArCrCrCrArUrUrUrGrArArCrCrUrCdTdT / antisense rGrArGrGrUrUrCrArArArUrGrGrGrUrArCrCrUdCdT” has a normalised inhibition (eCFP-eYFP dual reporter) of 63.1%.
